Values joined by “and” are separate entries in the source; they are usually repeats but may differ in a detail not shown here. Equal values may be shown once.
Assays:
kainic acid receptors = test: kainic acid-evoked responses of spinal dorsal horn neurons, microiontophoresis; type: in vivo; conditions: anesthetized rat, iontophoresis, mean±SD, n = 16
Procedure: In another set of experiments, effects of calmidazolium were investigated on the responses of dorsal horn neurons evoked by NMDA and kainic acid agonists of different glutamate receptors, well characterized transducers of pain signals, more centrally. Neuronal firing responses to iontophoresed NMDA or kainic acid were typically fast in onset and short in duration (Fig. 8). Ejection currents for these excitatory agents were delivered alternately in every 2 min and were selected to produce a maximal peak height of 50–70 spikes/s which corresponded to 300–400 action potentials per stimulation epoch. Iontophoretic application of calmidazolium produced significant reduction in responses to both NMDA and kainic acid. Maximal inhibition of NMDA- or kainic acid -evoked responses were reached 15–20 min after calmidazolium application and remained so during the rest of the 2 hour long experiment. […]
Extracellular single-neuron recordings were made in chloral hydrate-anesthetized ([…] initial dose, i.p., with supplemental doses as required) male Wistar rats weighing between 350–450 g. […] Rectal temperature as well as the temperature of the mineral oil were monitored with temperature probes and kept at 37°C by a warm water-heated blanket beneath the rat and an infrared heat lamp from above. […]

TRPV1 [1] = target: T1, TRPV1 (Rattus norvegicus, UniProt O35433); test: capsaicin-induced 45Ca2+-uptake in primary rat embryonic DRG cultures; type: cell-based; set-up: sensory neurons, expressing TRPV1 endogenously; endogenous in cells; host or cells: primary cultures of embryonic rat dorsal root ganglia (E14, E16)
Procedure: Primary cultures were prepared from embryonic (E14) rat DRGs. Along with calmidazolium other polycyclic compounds were included in the vanilloid-induced ^45Ca^2+-transport assays.
Primary DRG cultures were prepared from E16 embryonic rats as described previously then plated in 15 cm Petri dishes for 4 h to remove the most adherent fibroblasts. For Ca^2+-uptake studies primary afferents neurons cultured in 96 well plates (3×10^3 cells/well), coated with poly-D lysine/collagen, which yielded both axons and dendrites bearing neurons due to neuronal growth factor supplementation in the culture medium [1]–[4]. The dendrites are large processes branching from the cell body that taper in diameter further from the cell body. The axons are a constant diameter and project over long distances from the cell body. Before the ion transport experiment, culture medium was removed and cells were washed three times. ^45Ca-uptake assays were carried out in “nominally zero Ca^2+” (i.e. 2×10^−5 M extracellular Ca^2+ ([Ca^2+]o) in 25 mM Tris-HCl buffered Hanks' balanced salt solution (pH 7.5), supplemented with 10 µM CaCl2 and 0.8 mM MgCl2medium (HCM) [1]–[4].
(§1) Vanilloid agonist inducible calcium transport was assayed in adherent cell lines ectopically expressing the C-terminally ε-tagged rat TRPV1 (3×10^4 cells/well) and primary cultures prepared from embryonic DRG, seeded in poly-D lysine/collagen coated 96 well plates. […] The previously established cell lines and standardized DRG cultures were extensively characterized for functional cell-based TRPV1 studies [1]–[4]. Immediately before the transport assay, cells were adapted to room temperature (20°C) for 5 min in HCM. ^45Ca^2+-uptake was performed for 10 min at 20°C in HCM using 0.1 µCi ^45Ca^2+ as radioactive tracer in a 100 µl final volume. To stop ^45Ca^2+-uptake, cells were rapidly changed back into 0.2 ml HCM, washed 4 additional times with 0.2 ml HCM, and then lysed in 80 µl/well RIPA buffer (50 mM Tris-HCl, pH 7.5, 150 mM NaCl, 1% Triton X-100, 0.5% deoxycholate, 0.1% SDS, 5 mM EDTA) for 30 min [1]–[4]. Aliquots of the solubilized cell extracts were mixed with 120 µl Microscint-40 and counted in a 96 well plate liquid scintillation counter (TopCount-NXT, Packard).

formalin-induced pain = test system: formalin-induced pain; set-up: method as in PMID 8883861; conditions: rat, intrathecal; cited from earlier work
heat-induced tail-flick = test system: heat-induced tail-flick; set-up: method as in PMID 8883861; conditions: cited from earlier work
TRPV1 [2] = target: T1, TRPV1; test: capsaicin-induced Ca2+-uptake in human TRPV1-HaCaT keratinocyte line; type: cell-based; set-up: expressed in transfected cells; conditions: data not shown
Procedure: Assays were carried out in 2×10^−5 M extracellular Ca^2+ in 96 well plate formats at room temperature (22°C) for 10 min with robotic liquid handling. […] We hypothesized that calmodulin antagonists and some registered drugs may exert their blocking effect with another mechanisms on TRPV1 and not necessarily on their conventional target.
TRPV1-NIH3T3 mouse fibroblast line, ectopically expressing the rat TRPV1 was established previously.
as §1, with “To stop ^45Ca^2+-uptake, cells were rapidly changed back into 0.2 ml HCM, washed 4 additional times with 0.2 ml HCM, and then lysed in 80 µl/well RIPA buffer (50 mM Tris-HCl, pH 7.5, 150 mM NaCl, 1% Triton X-100, 0.5% deoxycholate, 0.1% SDS, 5 mM EDTA) for 30 min [1]–[4].” left out

T1 sequence (O35433 whole entry): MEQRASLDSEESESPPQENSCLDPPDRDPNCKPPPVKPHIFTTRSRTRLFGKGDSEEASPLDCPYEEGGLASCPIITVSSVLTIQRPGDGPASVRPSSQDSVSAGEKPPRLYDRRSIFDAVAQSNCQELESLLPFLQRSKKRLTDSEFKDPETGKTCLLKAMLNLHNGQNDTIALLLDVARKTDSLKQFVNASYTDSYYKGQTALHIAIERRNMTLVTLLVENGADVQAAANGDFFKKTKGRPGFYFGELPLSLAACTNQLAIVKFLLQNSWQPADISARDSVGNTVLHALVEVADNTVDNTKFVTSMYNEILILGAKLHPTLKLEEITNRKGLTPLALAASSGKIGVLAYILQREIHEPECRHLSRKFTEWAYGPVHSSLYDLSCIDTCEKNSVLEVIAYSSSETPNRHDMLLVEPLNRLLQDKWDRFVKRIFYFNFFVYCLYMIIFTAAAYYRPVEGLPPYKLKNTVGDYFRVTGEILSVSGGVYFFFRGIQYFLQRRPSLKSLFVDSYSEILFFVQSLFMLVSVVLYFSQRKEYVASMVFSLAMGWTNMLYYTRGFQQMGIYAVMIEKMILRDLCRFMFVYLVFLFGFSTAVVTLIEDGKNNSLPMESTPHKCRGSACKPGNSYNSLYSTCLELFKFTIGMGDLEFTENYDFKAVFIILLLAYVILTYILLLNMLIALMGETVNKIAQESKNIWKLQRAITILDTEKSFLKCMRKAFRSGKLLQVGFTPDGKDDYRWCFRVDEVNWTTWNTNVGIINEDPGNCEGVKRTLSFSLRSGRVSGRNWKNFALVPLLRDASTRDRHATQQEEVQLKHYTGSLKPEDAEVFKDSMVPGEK

SMILES: Clc1ccc(C(c2ccc(Cl)cc2)n2cc[n+](CC(OCc3ccc(Cl)cc3Cl)c3ccc(Cl)cc3Cl)c2)cc1 (stereo not drawn) [calmidazolium]
- responses to kainic acid, % of pre-calmidazolium baseline control (kainic acid receptors): 47±20%
- fold higher potency in DRG cultures (TRPV1 [1]; DRG cultures vs TRPV1-NIH3T3 cells / other compounds (comparator unclear)): ~3 fold
- IC50 (TRPV1 [1]; rat embryonic DRG sensory neuron cultures, 2 µM capsaicin, read-out: IC50, inhibition of capsaicin-induced Ca2+-uptake): 600 nM and ~600 nM
- analgesia in both phases of formalin tests (formalin-induced pain): analgesic
- effect on heat-induced tail-flick latency (heat-induced tail-flick): inhibit
- efficacy on TRPV1 (in words) (TRPV1 [2]): µM scale
